Experimental data: US11021446B2 (NOVARTIS AG, priority 2013, dated 2021)

molecular target: T1, human Farnesoid X Receptor (FXR) ligand binding domain (GST-FXR LBD) (Homo sapiens, UniProt Q96RI1); experiment: Human GST-FXR LBD co-activator interaction assay (FXR HTRF assay); format: biochemical; conditions: GST-FXR LBD interaction with biotin-labeled SRC-1 peptide, FRET, response relative to GW4064, read-out: FXR coactivator interaction assay (HTRF)
T1 construct: purchased Invitrogen
T1 sequence (Q96RI1 193-472 isoform Q96RI1-2): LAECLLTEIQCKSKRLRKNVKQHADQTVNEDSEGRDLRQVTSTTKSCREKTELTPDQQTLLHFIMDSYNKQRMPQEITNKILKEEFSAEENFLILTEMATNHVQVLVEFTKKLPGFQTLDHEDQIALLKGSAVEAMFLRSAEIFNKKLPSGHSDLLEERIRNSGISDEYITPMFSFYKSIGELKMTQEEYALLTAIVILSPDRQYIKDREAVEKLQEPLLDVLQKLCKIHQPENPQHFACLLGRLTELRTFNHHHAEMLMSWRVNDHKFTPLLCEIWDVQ

Structure (SMILES)	EC50
Cn1nc(C(=O)N(Cc2ccc(C(=O)O)cc2)Cc2cncc(F)c2)c2c1-c1cc(Cl)ccc1OC2 [Compound 88, 4-((8-chloro-N-((5-fluoropyridin-3-yl)methyl)-1-methyl-1,4-dihydrochromeno[4,3-c]pyrazole-3-carboxamido)methyl)benzoic acid]	0.015 µM
Cn1nc(C(=O)N(Cc2ccc(C(=O)O)cc2)Cc2ccccc2F)c2c1-c1cc(Cl)ccc1OC2 [Compound 92, 4-((8-chloro-N-(2-fluorobenzyl)-1-methyl-1,4-dihydrochromeno[4,3-c]pyrazole-3-carboxamido)methyl)benzoic acid]	0.014 µM
Cn1nc(C(=O)N(Cc2ccccc2F)Cc2ccc(C(=O)O)cc2F)c2c1-c1cc(F)ccc1OC2 [Compound 94, 3-fluoro-4-((8-fluoro-N-(2-fluorobenzyl)-1-methyl-1,4-dihydrochromeno[4,3-c]pyrazole-3-carboxamido)methyl)benzoic acid]	0.032 µM
Cn1nc(C(=O)N(Cc2ccc(C(=O)O)c(F)c2)Cc2ccccc2F)c2c1-c1cc(Cl)ccc1OC2 [Compound 97, 4-((8-chloro-N-(2-fluorobenzyl)-1-methyl-1,4-dihydrochromeno[4,3-c]pyrazole-3-carboxamido)methyl)-2-fluorobenzoic acid]	0.017 µM
Cc1nc(C(=O)O)ccc1CN(Cc1cccc(F)c1)C(=O)c1nn(C)c2c1COc1ccc(Cl)cc1-2 [Compound 99, 5-((8-chloro-N-(3-fluorobenzyl)-1-methyl-1,4-dihydrochromeno[4,3-c]pyrazole-3-carboxamido)methyl)-6-methylpicolinic acid]	0.029 µM

Stronger by EC50, values ahead:

EC50	Structure (SMILES)
0.005 µM	Cn1nc(C(=O)N(Cc2cccc(F)c2)Cc2ccc(C(=O)O)c(F)c2)c2c1-c1cc(Cl)ccc1OC2 [Compound 90, 4-((8-chloro-N-(3-fluorobenzyl)-1-methyl-1,4-dihydrochromeno[4,3-c]pyrazole-3-carboxamido)methyl)-2-fluorobenzoic acid]
0.0065 µM	Cn1nc(C(=O)N(Cc2ccccc2)Cc2ccc(C(=O)O)c(F)c2)c2c1-c1cc(Cl)ccc1OC2 [Compound 91, 4-((N-benzyl-8-chloro-1-methyl-1,4-dihydrochromeno[4,3-c]pyrazole-3-carboxamido)methyl)-2-fluorobenzoic acid]
0.013 µM	Cn1nc(C(=O)N(Cc2ccccc2F)Cc2ccc(C(=O)O)cc2F)c2c1-c1cc(Cl)ccc1OC2 [Compound 93, 4-((8-chloro-N-(2-fluorobenzyl)-1-methyl-1,4-dihydrochromeno[4,3-c]pyrazole-3-carboxamido)methyl)-3-fluorobenzoic acid]
0.0035 µM	Cn1nc(C(=O)N(Cc2ccc(C(=O)O)cc2)Cc2cccc(F)c2)c2c1-c1cc(Cl)ccc1OC2 [Compound 95, 4-((8-chloro-N-(3-fluorobenzyl)-1-methyl-1,4-dihydrochromeno[4,3-c]pyrazole-3-carboxamido)methyl)benzoic acid]
0.0036 µM	Cn1nc(C(=O)N(Cc2cccc(F)c2)Cc2ccc(C(=O)O)cc2F)c2c1-c1cc(Cl)ccc1OC2 [Compound 96, 4-((8-chloro-N-(3-fluorobenzyl)-1-methyl-1,4-dihydrochromeno[4,3-c]pyrazole-3-carboxamido)methyl)-3-fluorobenzoic acid]
0.0055 µM	Cn1nc(C(=O)N(CCNc2cc(C(=O)O)ccc2F)Cc2ccccc2F)c2c1-c1cc(Cl)ccc1OC2 [Compound 101, 3-((2-(8-chloro-N-(2-fluorobenzyl)-1-methyl-1,4-dihydrochromeno[4,3-c]pyrazole-3-carboxamido)ethyl)amino)-4-fluorobenzoic Acid]
